# From paper PMC10380488, “Cx43 Hemichannel and Panx1 Channel Modulation by Gap19 and ^10Panx1 Peptides” (International Journal of Molecular Sciences, 2023)
# “And” between values parts separate entries of the source, which are not always exact repeats. Equal values may be shown once. “Also recorded” adds a separate entry of the source.
# Experiments:
# [1] = target: T1, Panx1 channels (Rattus norvegicus, UniProt P60570); test: Whole-cell patch-clamp, unitary Panx1 channel current activity in C6-Panx1 cells; assay type: cell-based; conditions: for nominal open probability (NPo) of Panx1 channels: C6-Panx1, step −30 to +70 mV, 30 s, mean ± SEM, control 0.37 ± 0.02
# T1 construct: expressed in transfected cells; host or cells: C6 glioma cells (C6-Panx1), gift of Dr Christian C; Naus
# T1 sequence (P60570 whole entry): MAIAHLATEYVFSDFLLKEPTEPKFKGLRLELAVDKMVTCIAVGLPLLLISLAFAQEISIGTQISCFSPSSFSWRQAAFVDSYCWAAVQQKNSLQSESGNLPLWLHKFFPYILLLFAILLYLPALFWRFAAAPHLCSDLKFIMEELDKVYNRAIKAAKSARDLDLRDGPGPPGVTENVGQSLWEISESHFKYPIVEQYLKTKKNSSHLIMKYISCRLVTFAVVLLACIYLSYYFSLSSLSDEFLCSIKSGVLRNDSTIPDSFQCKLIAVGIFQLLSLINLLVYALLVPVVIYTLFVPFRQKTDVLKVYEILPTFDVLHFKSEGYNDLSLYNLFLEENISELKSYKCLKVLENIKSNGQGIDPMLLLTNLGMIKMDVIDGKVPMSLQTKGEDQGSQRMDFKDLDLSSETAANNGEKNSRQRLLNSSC
# Source text: (§1) We used HeLa cells stably transfected with Cx43 (HeLa-Cx43 [56]); endogenous expression of Panx1 is very low or absent in non-transfected HeLa cells. C6 glioma cells stably transfected with Panx1 (C6-Panx1, C-terminally myc-tagged; kind gift of Dr Christian C. Naus, University of British Columbia, Canada) were used for the Panx1 channel studies; Cx43 expression is low or undetectable [61] in these cells. HeLa cells were maintained in Dulbecco’s modified Eagle’s medium (DMEM; Invitrogen, Gent, Belgium), and C6 cells were grown in DMEM:Ham’s F12 (1:1—Invitrogen, Merelbeke, Belgium), all supplemented with 10% fetal bovine serum (FBS), 2 mM glutamine, 10 U/mL penicillin, 10 µg/mL streptomycin and 0.25 µg/mL fungizone. Stable exogenous expressions were maintained by supplementation of 1 and 3 µg/mL puromycin (Sigma-Aldrich, Bornem, Belgium) for HeLa-Cx43 and C6-Panx1 cells, respectively. Stable transfectants were subcultured into puromycin-free medium 2 days prior to experimentation. Cells were maintained at 37 °C and 10% (HeLa-Cx43) or 5% (C6-Panx1) CO2.
# (§2) All experimental data were obtained with the patch-clamp technique in whole-cell recording mode on HeLa-Cx43 and C6-Panx1 cells. Extracellular solution was composed of the following (in mM): 150 NaCl, 4 CsCl, 2 CaCl2, 2 MgCl2, 2 pyruvic acid, 5 glucose and 5 HEPES at pH of 7.4, while the pipette solution consisted of the following (in mM): 125 CsCl, 10 sodium aspartate (NaAsp), 0.26 CaCl2, 1 MgCl2, 2 EGTA, 10 tetraethylammonium (TEA)-Cl and 5 HEPES at pH 7.2. The free Ca^2+ concentration of the pipette solution was estimated to be ~50 nM as calculated with WEBMAX (https://somapp.ucdmc.ucdavis.edu/pharmacology/bers/maxchelator/webmaxc/webmaxcS.htm; accessed on 20 September 2020). Whole-cell recording was performed under control conditions and in the presence of Gap19 or ^10Panx1. Gap19 was included in the pipette solution, while ^10Panx1 was added externally and preincubated for 45 min. Recordings were commenced 2 min after establishment of the whole-cell configuration. Currents were recorded with an EPC 7 PLUS patch-clamp amplifier (HEKA Elektronik, Germany). Unitary current activities were elicited by stepping the cells from a holding potential of −30 mV to a membrane potential (Vm) of +70 mV for 30 s. Data were digitized at 4 KHz using an NI USB-6221 data acquisition device (National Instruments, Austin, TX, USA) and WinWCP acquisition software designed by Dr. J. Dempster (University of Strathclyde, United Kingdom). Measured currents were filtered by a 7-pole Bessel low-pass filter at 1 KHz cut-off frequency. Transition analysis was performed as reported in [16]. Unitary channel conductances were determined from transition histograms as well as from all-point histograms and were obtained by fitting their frequencies to Gaussian distributions. Channel opening activity is expressed as nominal open probability NPo, denoting the number of active channels in the patch multiplied by the open probability.
# (§3) Data were processed using Clampfit version 11.2 (Molecular Devices, San Jose, USA) and HemiGUI software as previously described. Results are expressed as mean ± SEM (unless otherwise stated), with n giving the number of traces, N the number of cells, and N the number of experiments on different cell culture dishes. Multiple groups were compared by one-way analysis of variance with post-hoc Dunnett’s or Bonferroni multiple comparison tests, making use of GraphPad PRISM 5.0 (GraphPad Software, Inc., La Jolla, CA). Results were considered statistically significant when p ≤ 0.05 (*; # for p ≤ 0.05, **; ## for p ≤ 0.01, ***; ### for p ≤ 0.001, and ****; #### for p ≤ 0.0001).
# [2] = test system: Cx43 HCs; test: Whole-cell patch-clamp, unitary Cx43 hemichannel current activity in HeLa-Cx43 cells; assay type: cell-based; conditions: for nominal open probability (NPo) of Cx43 HCs: HeLa-Cx43, step −30 to +70 mV, 30 s, mean ± SEM, control 0.48 ± 0.02; for conductance γ of Cx43 HC, subconductance state, transition histogram / unitary conductance γ of Cx43 HC, fully open state, transition histogram: Figure 3B, mean ± SD
# Source text: as §1, §2, §3
# [3] = test system: Cx43 or Panx1 channels; conditions: 100 μM extracellular; HeLa cells expressing Cx43 or Panx1; cited from earlier work
# Source text: (§4) Connexins and pannexins are two ubiquitous but distinct protein families forming membrane hemichannels (HCs) and channels in the plasma membrane, respectively. They facilitate the exchange of ions and small molecules (MW ≤ 1.5 kDa) between the intracellular and the extracellular compartment upon opening. Among these respective families, connexin-43 (Cx43) and pannexin-1 (Panx1) are the most abundant isotypes in the human body expressed in a wide array of tissues. Panx1 and Cx43 have several common properties, including the following: (i) an analogous tetra-spanning transmembrane topology with ...
# [4] = target: T1, Panx1 channels; conditions: 200 µM extracellular; high extracellular K^+; cited from earlier work
# Source text: as §4
# [5] = test system: Cx43 C-terminal tail; conditions: cited from earlier work
# [6] = test system: Cx43 HCs; conditions: cited from earlier work
# Source text: However, this concentration decreases the NPo of Cx43 HCs by ~83% (Figure 2B; for traces, see Figure 3).
# [7] = 100 μM Gap19 intracellular, N = 12, n = 98
# [8] = 200 μM Gap19 intracellular, N = 15, n = 122
sequence,measurement,setting,value
KQIEIKKFK [Gap19],effect on Panx1 channels,[1]; 100 μM Gap19 intracellular,without affecting the Panx1 channels
same,nominal open probability (NPo) of Panx1 channels,"[1]; 100 μM Gap19 intracellular (pipette), N = 12 cells, n = 76 traces",0.34 ± 0.03
same,nominal open probability (NPo) of Panx1 channels,"[1]; 200 μM Gap19 intracellular (pipette), N = 9 cells, n = 70 traces",0.30 ± 0.03
same,"effect on open-state events of Panx1, all-point histograms","[1]; 200 µM Gap19 intracellular, Figure 1C",some effect; also recorded: to some extent
same,nominal open probability (NPo) of Panx1 channels,"[1]; 500 μM Gap19 intracellular (pipette), N = 10 cells, n = 87 traces",0.28 ± 0.03
same,reduction of NPo of Panx1 channels,"[1]; 500 μM Gap19 intracellular, vs control, significant",~ 25% and 26%
same,effect on Panx1 channel activity (NPo),[1]; 100 and 200 μM Gap19 intracellular (below 500 μM),did not significantly affect the NPo of the Panx1 channel; also recorded: non-significant effects on Panx1 channel activity; also recorded: without affecting Panx1 channel function; also recorded: No Effect below 500 µM
same,fast-flickering closures of Panx1 channel,[1]; traces of Panx1 channel activity (Supplementary Figure S2),not observed
same,reduction of NPo of Cx43 HCs,[2]; 100 μM Gap19 intracellular,significantly reduces the NPo of Cx43 HCs; also recorded: more than halved the NPo
same,nominal open probability (NPo) of Cx43 HCs,"[2]; 100 μM Gap19 intracellular (pipette), N = 12 cells, n = 98 traces",0.21 ± 0.02
same,nominal open probability (NPo) of Cx43 HCs,"[2]; 200 μM Gap19 intracellular (pipette), N = 15 cells, n = 122 traces",0.18 ± 0.02
same,nominal open probability (NPo) of Cx43 HCs,"[2]; 500 μM Gap19 intracellular (pipette), N = 12 cells, n = 88 traces",0.08 ± 0.01
same,reduction of NPo of Cx43 HCs,"[2]; 500 μM Gap19 intracellular, vs control",84%
same,"conductance γ of Cx43 HC, subconductance state, transition histogram",[2]; [7],86 ± 31 pS
same,"unitary conductance γ of Cx43 HC, fully open state, transition histogram",[2]; [7],201 ± 50 pS
same,"conductance γ of Cx43 HC, subconductance state, transition histogram",[2]; [8],87 ± 27 pS
same,"unitary conductance γ of Cx43 HC, fully open state, transition histogram",[2]; [8],201 ± 45 pS
same,"conductance γ of Cx43 HC, all-point histogram","[2]; Figure 3C, 100 μM Gap19 intracellular",204 ± 46 pS
same,inhibition of Cx43 HC opening activity (in words),"[2]; Gap19 intracellular / ^10Panx1 extracellular, 100-500 μM (Gap19 100–200 μM)",Inhibited; also recorded: concentration-dependent and significant inhibition; also recorded: concentration-dependently inhibits Cx43 HCs; also recorded: significantly inhibits Cx43 HCs
same,effect on Cx43 HC gating (fully open state vs subconductance state),"[2]; Gap19 intracellular / ^10Panx1 extracellular, from 100 µM","reduced the frequency of transitions to the fully open state and increased the propensity of subconductance transitions starting from 100 µM; also recorded: increased gating to the subconductance state; also recorded: acts as a gating modifier, reducing transitions to the fully open state (~210 pS) while increasing the number of transitions to the subconductance state (~80 pS"
same,selectivity for Cx43 or Panx1 channels,[3],good selectivity
same,effect on ATP release from Panx1-overexpressing cells,[4],does not affect ATP release
same,interaction with the Cx43 C-terminal tail,[5],interacts with the Cx43 C-terminal tail
same,effect on Cx43 HC gating,[6],gating modifier
